According to patent US9169217B2, “Arylalkyl esters of 4-amino-6-(substituted phenyl)-picolinates and 6-amino-2-(substituted phenyl)-pyrimidinecarboxylates and their use as selective herbicides for crops” (Dow AgroSciences LLC, priority 2011, dated 2015):
Read-outs that look alike come from different tables or passages of the source.

Experiments:
[1] = tested on: Scirpus juncoides ROXB. (Japanese bulrush); assay: In-water applied herbicidal activity in transplanted paddy rice (Example 17); format: in vivo; conditions: for GR50 / GR80 / GR90: SCPJU, in-water applied, probit analysis; for GR50: 50% growth reduction; for GR80: 80% growth reduction; for GR90: 90% growth reduction
Outline: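 Ester forms of test compounds, in acetone diluted with aqueous Agri-dex (final 1.25% v/v crop oil concentrate), were injected into the flood water of paddy pots holding weeds or rice at the 2nd–3rd leaf stage in mud (pH ~7.3–7.8). Visual injury versus untreated plants was scored 0–100% after 3 weeks in greenhouse (~29/26 °C). GR50/GR80 were derived by probit analysis.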

[2] = tested on: Ipomoea hederacea (Morningglory, ivyleaf); assay: General postemergence herbicidal activity (Example 13); format: in vivo; conditions: post-emergent spray, 14 DAA
Method: Seeds or nutlets of the desired test plant species were planted in Sun Gro Metro-Mix® 360 planting mixture, which typically has a pH of 6.0 to 6.8 and an organic matter content of about 30 percent, in plastic pots with a surface area of 84.6 square centimeters (cm^2). When required to ensure good germination and healthy plants, a fungicide treatment and/or other chemical or physical treatment was applied. The plants were grown for 7-31 days (d) in a greenhouse with an approximate 15 hour (h) photoperiod which was maintained at about 23-29° C. during the day and 22-28° C. during the night. Nutrients and water were added on a regular basis and supplemental lighting was provided with overhead metal halide 1000-Watt lamps as necessary. The plants were employed for testing when they reached the first or second true leaf stage.
Treatments consisted of esters of compounds 33 and 39 and F and G. Compound F is methyl 6-amino-2-(4-chloro-2-fluoro-3-methoxyphenyl)-5-methoxypyrimidine-4-carboxylate; and compound G is methyl 4-amino-3-chloro-6-(4-chloro-2-fluoro-3-methoxyphenyl)picolinate. A weighed amount, determined by the highest rate to be tested, of each test compound was placed in a 25 mL glass vial and was dissolved in 4 mL of a 97:3 v/v (volume/volume) mixture of acetone and dimethyl sulfoxide (DMSO) to obtain concentrated stock solutions. […] The concentrated stock solutions obtained were diluted with 20 mL of an aqueous mixture containing acetone, water, isopropyl alcohol, DMSO, Atplus 411F crop oil concentrate, and Triton® X-155 surfactant in a 48.5:39:10:1.5:1.0:0.02 v/v ratio to obtain spray solutions containing the highest application rates. Additional application rates were obtained by serial dilution of 12 mL of the high rate solution into a solution containing 2 mL of a 97:3 v/v (volume/volume) mixture of acetone and DMSO and 10 mL of an aqueous mixture containing acetone, water, isopropyl alcohol, DMSO, Atplus 411F crop oil concentrate, and Triton® X-155 surfactant in a 48.5:39:10:1.5:1.0:0.02 v/v ratio to obtain ½×, ¼×, ⅛× and 1/16× rates of the high rate. Compound requirements are based upon a 12 mL application volume at a rate of 187 liters per hectare (L/ha). Formulated compounds were applied to the plant material with an overhead Mandel track sprayer equipped with 8002E nozzles calibrated to deliver 187 L/ha over an application area of 0.503 square meters (m^2) at a spray height of 18 inches (43 cm) above the average plant canopy height. Control plants were sprayed in the same manner with the solvent blank.
The treated plants and control plants were placed in a greenhouse as described above and watered by sub-irrigation to prevent wash-off of the test compounds. After 14 d, the condition of the test plants as compared with that of the untreated plants was determined visually and scored on a scale of 0 to 100 percent where 0 corresponds to no injury and 100 corresponds to complete kill.

[3] = 35 g ai/ha, 0 = no injury, 100 = complete kill

SMILES	GR50 [1] [g ae/ha]	GR80 [1] [g ae/ha]	GR90 [1] [g ae/ha]	Visual Injury (%) IPOHE ([2]; 8.75 g ai/ha) [%]	Visual Injury (%) IPOHE ([2]; 17.5 g ai/ha) [%]	Visual Injury (%) IPOHE [2, 3] [%]	also measured
COc1c(Cl)ccc(-c2nc(C(=O)OCc3ccccc3)c(Cl)c(N)c2F)c1F [Compound 1, benzyl 4-amino-3-chloro-6-(4-chloro-2-fluoro-3-methoxyphenyl)-5-fluoropicolinate]	<8.75	4.4	10.8				pest or weed control at 17.5 g/ha ([1]; Schoenoplectiella juncoides, 504 h, read-out: Visual Injury (%) SCPJU): 99%
COc1c(Cl)ccc(-c2cc(N)c(Cl)c(C(=O)OCc3ccccc3)n2)c1F [Compound 39]				70	75	80	
COC(=O)c1nc(-c2ccc(Cl)c(OC)c2F)nc(N)c1OC [Compound F, methyl 6-amino-2-(4-chloro-2-fluoro-3-methoxyphenyl)-5-methoxypyrimidine-4-carboxylate, reference compound]							Visual Injury (%) IPOHE ([2]; 70 g ai/ha): 80%; pest or weed control at 35 g/ha ([1]; Schoenoplectiella juncoides, 504 h, rice cropping systems, in-water applied (paddy), 35 g ae/ha, 21 DAA, may represent multiple trials, read-out: Visual Injury (%) SCPJU): 50%
COC(=O)c1nc(-c2ccc(Cl)c(OC)c2F)cc(N)c1Cl [Compound G, methyl 4-amino-3-chloro-6-(4-chloro-2-fluoro-3-methoxyphenyl)picolinate, reference compound]				40	50	65	
COC(=O)c1nc(-c2ccc(Cl)c(OC)c2F)c(F)c(N)c1Cl [E, methyl 4-amino-3-chloro-6-(4-chloro-2-fluoro-3-methoxyphenyl)-5-fluoropicolinate, reference compound]	9.6	20.0	29.5				pest or weed control at 17.5 g/ha ([1]; Schoenoplectiella juncoides, 504 h, rice cropping systems, in-water applied (paddy), 17.5 g ae/ha, 21 DAA, may represent multiple trials, read-out: Visual Injury (%) SCPJU): 75%
